# Data: US10105357B2, “Indication of antibiotic drugs for preparation of cancer inhibition pharmaceutical composition” (LAUNX BIOMEDICAL CO., LTD., priority 2014, dated 2018)
# Read-outs that look alike come from different tables or passages of the source.
# Legend:
# [1] = system: SAS (Tongue squamous cell carcinoma); test: Cell viability analysis, tongue cancer SAS; assay type: cell-based, human
# AsPC-1 = test: Cell viability analysis, pancreatic cancer AsPC-1; assay type: cell-based, human
# [2] = system: HCT116 (p53+) (Colorectal Carcinoma)
# [3] = system: C-33A (Cervical carcinoma); test: Cell viability analysis, cervical cancer C-33A; assay type: cell-based, human
# TOV-21G = test: Cell viability analysis, ovarian cancer TOV-21G; assay type: cell-based, human
# [4] = system: A549 (Lung Adenocarcinoma); test: Cell viability analysis, lung cancer A549; assay type: cell-based, human
# [5] = system: A375 (Amelanotic Melanoma); test: Cell viability analysis, skin cancer A375; assay type: cell-based, human
# [6] = system: LoVo (Colorectal Adenocarcinoma); test: Cell viability analysis, colon cancer LoVo; assay type: cell-based, human
# [7] = system: HeLa (Cervix Adenocarcinoma); test: Cell viability analysis, cervical cancer HeLa; assay type: cell-based, human
# [8] = system: HepG2 (Hepatocellular Carcinoma); test: Cell viability analysis, hepatic cancer HepG2; assay type: cell-based, human
# [9] = system: Hep3B (hepatocellular carcinoma); test: Cell viability analysis, hepatic cancer Hep3B; assay type: cell-based, human
# [10] = system: MDA-MB-231 (Mammary Gland, Adenocarcinoma); test: Cell viability analysis, breast cancer MDA-MB-231; assay type: cell-based, human
# [11] = system: MKN-45 (Gastric Adenocarcinoma); test: Cell viability analysis, gastric cancer MKN-45; assay type: cell-based, human
# U-2OS = test: Cell viability analysis, osteosarcoma U-2OS; assay type: cell-based, human
# BxPC-3 = test: Cell viability analysis, pancreatic cancer BxPC-3; assay type: cell-based, human
# [12] = system: AGS (Gastric Adenocarcinoma); test: Cell viability analysis, gastric cancer AGS; assay type: cell-based, human
# [13] = system: TSGH-8301 (Urinary Bladder Carcinoma); test: Cell viability analysis, bladder cancer TSGH-8301; assay type: cell-based, human
# NIH: OVCAR-3 = test: Cell viability analysis, ovarian cancer NIH: OVCAR-3; assay type: cell-based, human
# [14] = system: 786-O (Renal adenocarcinoma); test: Cell viability analysis, renal cancer 786-O; assay type: cell-based, human
# [15] = system: HI650 (Lung Adenocarcinoma); test: Cell viability analysis, lung cancer HI650; assay type: cell-based, human
# T24 = test: Cell viability analysis, bladder cancer T24; assay type: cell-based, human
# [16] = system: BCC (basal cell carcinoma); test: Cell viability analysis, skin cancer BCC; assay type: cell-based, human
# [17] = system: PC3 (p53−) (Prostate Adenocarcinoma); test: Cell viability analysis, prostate cancer PC3; assay type: cell-based, human
# [18] = system: MCF7 (Mammary Gland, Adenocarcinoma); test: Cell viability analysis, breast cancer MCF7; assay type: cell-based, human
smiles,measurement,setting,value
O=C(Nc1ccc([N+](=O)[O-])cc1Cl)c1cc(Cl)ccc1O [Niclosamide (Niclocide)],"The results of antibiotic drug inhibiting cancer cell lines (cell viability analysis), SAS",[1],23.94
same,"The results of antibiotic drug inhibiting cancer cell lines (cell viability analysis), AsPC-1",AsPC-1,40.72
same,viability,[2],23.9%
same,"The results of antibiotic drug inhibiting cancer cell lines (cell viability analysis), C-33A",[3],39.49
same,"The results of antibiotic drug inhibiting cancer cell lines (cell viability analysis), TOV-21G",TOV-21G,17.59
same,"The results of antibiotic drug inhibiting cancer cell lines (cell viability analysis), A549",[4],16.68
same,"The results of antibiotic drug inhibiting cancer cell lines (cell viability analysis), A375",[5],20.26
same,"The results of antibiotic drug inhibiting cancer cell lines (cell viability analysis), LoVo",[6],41.95
same,"The results of antibiotic drug inhibiting cancer cell lines (cell viability analysis), HeLa",[7],25.4
same,"The results of antibiotic drug inhibiting cancer cell lines (cell viability analysis), HepG2",[8],37.55
same,"The results of antibiotic drug inhibiting cancer cell lines (cell viability analysis), Hep3B",[9],60.79
same,"The results of antibiotic drug inhibiting cancer cell lines (cell viability analysis), MDA-MB231",[10],37.69
same,"The results of antibiotic drug inhibiting cancer cell lines (cell viability analysis), MKN-45",[11],50.74
same,"The results of antibiotic drug inhibiting cancer cell lines (cell viability analysis), U2OS",U-2OS,26.74
same,"The results of antibiotic drug inhibiting cancer cell lines (cell viability analysis), BxPC-3",BxPC-3,41.93
same,"The results of antibiotic drug inhibiting cancer cell lines (cell viability analysis), AGS",[12],23.05
same,"The results of antibiotic drug inhibiting cancer cell lines (cell viability analysis), TSGH-8301",[13],35.94
same,"The results of antibiotic drug inhibiting cancer cell lines (cell viability analysis), NIH-OVCAR-3",NIH: OVCAR-3,54.68
same,"The results of antibiotic drug inhibiting cancer cell lines (cell viability analysis), 786-O",[14],25.52
same,"The results of antibiotic drug inhibiting cancer cell lines (cell viability analysis), H1650",[15],36.77
same,"The results of antibiotic drug inhibiting cancer cell lines (cell viability analysis), T24",T24,26.49
same,"The results of antibiotic drug inhibiting cancer cell lines (cell viability analysis), BCC",[16],30.66
same,"The results of antibiotic drug inhibiting cancer cell lines (cell viability analysis), PC-3",[17],42.84
same,"The results of antibiotic drug inhibiting cancer cell lines (cell viability analysis), MCF-7",[18],33.36
CCCSc1ccc2[nH]c(NC(=O)OC)nc2c1 [Albendazole (Albenza)],"The results of antibiotic drug inhibiting cancer cell lines (cell viability analysis), SAS","[1]; SAS, repeated experiment",36.08
same,"The results of antibiotic drug inhibiting cancer cell lines (cell viability analysis), AsPC-1","AsPC-1; AsPC-1, repeated experiment",35.28
same,viability,[2],20.9%
same,"The results of antibiotic drug inhibiting cancer cell lines (cell viability analysis), C-33A","[3]; C-33A, repeated experiment",42.62
same,"The results of antibiotic drug inhibiting cancer cell lines (cell viability analysis), TOV-21G","TOV-21G; TOV-21G, repeated experiment",29.79
same,"The results of antibiotic drug inhibiting cancer cell lines (cell viability analysis), A549","[4]; A549, repeated experiment",24.2
same,"The results of antibiotic drug inhibiting cancer cell lines (cell viability analysis), A375","[5]; A375, repeated experiment",36.21
same,"The results of antibiotic drug inhibiting cancer cell lines (cell viability analysis), LoVo","[6]; LoVo, repeated experiment",50.79
same,"The results of antibiotic drug inhibiting cancer cell lines (cell viability analysis), HeLa","[7]; HeLa, repeated experiment",29.9
same,"The results of antibiotic drug inhibiting cancer cell lines (cell viability analysis), HepG2","[8]; HepG2, repeated experiment",62.7
same,"The results of antibiotic drug inhibiting cancer cell lines (cell viability analysis), Hep3B","[9]; Hep3B, repeated experiment",61.38
same,"The results of antibiotic drug inhibiting cancer cell lines (cell viability analysis), MDA-MB231","[10]; MDA-MB231, repeated experiment",44.52
same,"The results of antibiotic drug inhibiting cancer cell lines (cell viability analysis), MKN-45","[11]; MKN-45, repeated experiment",62.34
same,"The results of antibiotic drug inhibiting cancer cell lines (cell viability analysis), U2OS","U-2OS; U2OS, repeated experiment",50.07
same,"The results of antibiotic drug inhibiting cancer cell lines (cell viability analysis), BxPC-3","BxPC-3; BxPC-3, repeated experiment",36.62
same,"The results of antibiotic drug inhibiting cancer cell lines (cell viability analysis), AGS","[12]; AGS, repeated experiment",29.46
same,"The results of antibiotic drug inhibiting cancer cell lines (cell viability analysis), TSGH-8301","[13]; TSGH-8301, repeated experiment",46.61
same,"The results of antibiotic drug inhibiting cancer cell lines (cell viability analysis), NIH-OVCAR-3","NIH: OVCAR-3; NIH-OVCAR-3, repeated experiment",52.49
same,"The results of antibiotic drug inhibiting cancer cell lines (cell viability analysis), 786-O","[14]; 786-O, repeated experiment",21.55
same,"The results of antibiotic drug inhibiting cancer cell lines (cell viability analysis), H1650","[15]; H1650, repeated experiment",41.75
same,"The results of antibiotic drug inhibiting cancer cell lines (cell viability analysis), T24","T24; T24, repeated experiment",37.98
same,"The results of antibiotic drug inhibiting cancer cell lines (cell viability analysis), BCC","[16]; BCC, repeated experiment",31.25
same,"The results of antibiotic drug inhibiting cancer cell lines (cell viability analysis), PC-3","[17]; PC-3, repeated experiment",37.99
same,"The results of antibiotic drug inhibiting cancer cell lines (cell viability analysis), MCF-7","[18]; MCF-7, repeated experiment",69.83
Cl.c1ccc([C@H]2CN3CCSC3=N2)cc1 [Levamisole Hydrochloride (Ergamisol)],"The results of antibiotic drug inhibiting cancer cell lines (cell viability analysis), SAS",[1],89.56
same,"The results of antibiotic drug inhibiting cancer cell lines (cell viability analysis), AsPC-1",AsPC-1,85.72
same,viability,[2],116%
same,"The results of antibiotic drug inhibiting cancer cell lines (cell viability analysis), C-33A",[3],96.19
same,"The results of antibiotic drug inhibiting cancer cell lines (cell viability analysis), TOV-21G",TOV-21G,83.45
same,"The results of antibiotic drug inhibiting cancer cell lines (cell viability analysis), A549",[4],104.9
same,"The results of antibiotic drug inhibiting cancer cell lines (cell viability analysis), A375",[5],113.9
same,"The results of antibiotic drug inhibiting cancer cell lines (cell viability analysis), LoVo",[6],100.7
same,"The results of antibiotic drug inhibiting cancer cell lines (cell viability analysis), HeLa",[7],137
same,"The results of antibiotic drug inhibiting cancer cell lines (cell viability analysis), HepG2",[8],127.7
same,"The results of antibiotic drug inhibiting cancer cell lines (cell viability analysis), Hep3B",[9],121.1
same,"The results of antibiotic drug inhibiting cancer cell lines (cell viability analysis), MDA-MB231",[10],102.7
same,"The results of antibiotic drug inhibiting cancer cell lines (cell viability analysis), MKN-45",[11],112.3
same,"The results of antibiotic drug inhibiting cancer cell lines (cell viability analysis), U2OS",U-2OS,79.87
same,"The results of antibiotic drug inhibiting cancer cell lines (cell viability analysis), BxPC-3",BxPC-3,68.02
same,"The results of antibiotic drug inhibiting cancer cell lines (cell viability analysis), AGS",[12],120.5
same,"The results of antibiotic drug inhibiting cancer cell lines (cell viability analysis), TSGH-8301",[13],106.8
same,"The results of antibiotic drug inhibiting cancer cell lines (cell viability analysis), NIH-OVCAR-3",NIH: OVCAR-3,105.6
same,"The results of antibiotic drug inhibiting cancer cell lines (cell viability analysis), 786-O",[14],93.24
same,"The results of antibiotic drug inhibiting cancer cell lines (cell viability analysis), H1650",[15],78.34
same,"The results of antibiotic drug inhibiting cancer cell lines (cell viability analysis), T24",T24,92.87
same,"The results of antibiotic drug inhibiting cancer cell lines (cell viability analysis), BCC",[16],114.1
same,"The results of antibiotic drug inhibiting cancer cell lines (cell viability analysis), PC-3",[17],125.7
same,"The results of antibiotic drug inhibiting cancer cell lines (cell viability analysis), MCF-7",[18],102.4
Cc1cc(C#N)cc(C)c1Oc1nc(Nc2ccc(C#N)cc2)nc(N)c1Br [Etravirine (TMC125)],"The results of antibiotic drug inhibiting cancer cell lines (cell viability analysis), SAS",[1],34.01
same,"The results of antibiotic drug inhibiting cancer cell lines (cell viability analysis), AsPC-1",AsPC-1,41.11
same,viability,[2],54.1%
same,"The results of antibiotic drug inhibiting cancer cell lines (cell viability analysis), C-33A",[3],63.88
same,"The results of antibiotic drug inhibiting cancer cell lines (cell viability analysis), TOV-21G",TOV-21G,28.26
same,"The results of antibiotic drug inhibiting cancer cell lines (cell viability analysis), A549",[4],37
same,"The results of antibiotic drug inhibiting cancer cell lines (cell viability analysis), A375",[5],37.32
same,"The results of antibiotic drug inhibiting cancer cell lines (cell viability analysis), LoVo",[6],45.66
same,"The results of antibiotic drug inhibiting cancer cell lines (cell viability analysis), HeLa",[7],47.73
same,"The results of antibiotic drug inhibiting cancer cell lines (cell viability analysis), HepG2",[8],68.31
same,"The results of antibiotic drug inhibiting cancer cell lines (cell viability analysis), Hep3B",[9],78.35
same,"The results of antibiotic drug inhibiting cancer cell lines (cell viability analysis), MDA-MB231",[10],95.38
same,"The results of antibiotic drug inhibiting cancer cell lines (cell viability analysis), MKN-45",[11],62.38
same,"The results of antibiotic drug inhibiting cancer cell lines (cell viability analysis), U2OS",U-2OS,36.38
same,"The results of antibiotic drug inhibiting cancer cell lines (cell viability analysis), BxPC-3",BxPC-3,41.88
same,"The results of antibiotic drug inhibiting cancer cell lines (cell viability analysis), AGS",[12],49.66
same,"The results of antibiotic drug inhibiting cancer cell lines (cell viability analysis), TSGH-8301",[13],56.13
same,"The results of antibiotic drug inhibiting cancer cell lines (cell viability analysis), NIH-OVCAR-3",NIH: OVCAR-3,64.29
same,"The results of antibiotic drug inhibiting cancer cell lines (cell viability analysis), 786-O",[14],59.38
same,"The results of antibiotic drug inhibiting cancer cell lines (cell viability analysis), H1650",[15],51.13
same,"The results of antibiotic drug inhibiting cancer cell lines (cell viability analysis), T24",T24,56.73
same,"The results of antibiotic drug inhibiting cancer cell lines (cell viability analysis), BCC",[16],46.3
same,"The results of antibiotic drug inhibiting cancer cell lines (cell viability analysis), PC-3",[17],53.42
same,"The results of antibiotic drug inhibiting cancer cell lines (cell viability analysis), MCF-7",[18],56.33
